Laboratory results as given in ChEMBL document CHEMBL4406873, “Optimization of the chromone scaffold through QSAR and docking studies: Identification of potent inhibitors of ABCG2” (Eur J Med Chem, 2019).

Target: T1, Broad substrate specificity ATP-binding cassette transporter ABCG2 (Homo sapiens, UniProt Q9UNQ0)
T1 sequence (Q9UNQ0 whole entry): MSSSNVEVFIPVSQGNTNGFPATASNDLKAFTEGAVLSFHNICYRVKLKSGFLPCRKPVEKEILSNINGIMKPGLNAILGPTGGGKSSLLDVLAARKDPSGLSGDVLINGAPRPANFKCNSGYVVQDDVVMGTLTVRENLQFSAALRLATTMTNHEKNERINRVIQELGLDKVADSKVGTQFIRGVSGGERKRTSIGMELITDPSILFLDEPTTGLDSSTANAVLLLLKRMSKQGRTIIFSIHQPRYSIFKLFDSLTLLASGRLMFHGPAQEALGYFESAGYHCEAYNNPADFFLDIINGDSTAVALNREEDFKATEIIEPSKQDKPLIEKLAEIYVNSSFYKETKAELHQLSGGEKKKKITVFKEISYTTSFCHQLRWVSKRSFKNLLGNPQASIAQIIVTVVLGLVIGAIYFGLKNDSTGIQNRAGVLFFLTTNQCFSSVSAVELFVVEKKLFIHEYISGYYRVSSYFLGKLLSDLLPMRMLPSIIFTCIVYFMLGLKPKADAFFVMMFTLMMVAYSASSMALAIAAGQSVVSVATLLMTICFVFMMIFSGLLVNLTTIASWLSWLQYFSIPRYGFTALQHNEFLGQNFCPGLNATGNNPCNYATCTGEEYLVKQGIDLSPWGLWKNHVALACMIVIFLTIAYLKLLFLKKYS
Assay: Inhibition of ABCG2 (unknown origin) expressed in HEK293 cells assessed as increase in mitoxantrone accumulation incubated for 30 mins by flow cytometric method
Format: cell-based

Compound	EC50 [µM]
COc1ccc2[nH]cc(CCNC(=O)c3cc(=O)c4c(OCc5cc(Br)cc(Br)c5)cccc4o3)c2c1	0.097
COc1ccc2[nH]cc(CCNC(=O)c3cc(=O)c4c(OCc5ccc(Br)cc5Br)cccc4o3)c2c1	0.046
